In patent publication US20250011368A1, “DLL3 TARGETING PEPTIDES AND CONSTRUCTS THEREOF” (MARIANA ONCOLOGY INC., priority 2023, published 2025):
Numbered stars: 1 amine (or outer) side, 2 acyl side, 3 side chain; on linkers, the order of the positions; unused ones are H or OH. Bridge positions count the residues as written; N and C are the ends. Square brackets hold non-standard residues; d marks the D form. Peptide text beside a SMILES is read from it. * marks the point of attachment. ξ: configuration not given here. TtdsdLys(DOTA)NH2 = NC(=O)[C@@H](CCCCNC(=O)CN1CCN(CC(=O)O)CCN(CC(=O)O)CCN(CC(=O)O)CC1)NC(=O)CCC(=O)NCCCOCCOCCOCCCN*; DOTA = O=C(O)CN1CCN(CC(=O)O)CCN(CC(=O)*)CCN(CC(=O)O)CC1; Phe(4-CF3) = N[C@@H](Cc1ccc(C(F)(F)F)cc1)C(=O)O; Trp(5-F) = N[C@@H](Cc1c[nH]c2ccc(F)cc12)C(=O)O; Phe(2-CF3) = N[C@@H](Cc1ccccc1C(F)(F)F)C(=O)O; Trp(7-aza) = N[C@@H](Cc1c[nH]c2ncccc12)C(=O)O; Pro(trans-4-F) = O=C(O)[C@@H]1C[C@@H](F)CN1; 2Nal = N[C@@H](Cc1ccc2ccccc2c1)C(=O)O; Gly(4-THP) = N[C@H](C(=O)O)C1CCOCC1; Nva(3-Et) = CCC(CC)[C@H](N)C(=O)O; ξThr(3R) = C[C@@H](O)C(N)C(=O)O; Cha = N[C@@H](CC1CCCCC1)C(=O)O; Cba = N[C@@H](CC1CCC1)C(=O)O; Chg = N[C@H](C(=O)O)C1CCCCC1; Nle = CCCC[C@H](N)C(=O)O; CH2 = C([*:1])[*:2]

Molecular target: T1, human DLL3 (Homo sapiens, UniProt Q9NYJ7)
T1 sequence (Q9NYJ7 27-618): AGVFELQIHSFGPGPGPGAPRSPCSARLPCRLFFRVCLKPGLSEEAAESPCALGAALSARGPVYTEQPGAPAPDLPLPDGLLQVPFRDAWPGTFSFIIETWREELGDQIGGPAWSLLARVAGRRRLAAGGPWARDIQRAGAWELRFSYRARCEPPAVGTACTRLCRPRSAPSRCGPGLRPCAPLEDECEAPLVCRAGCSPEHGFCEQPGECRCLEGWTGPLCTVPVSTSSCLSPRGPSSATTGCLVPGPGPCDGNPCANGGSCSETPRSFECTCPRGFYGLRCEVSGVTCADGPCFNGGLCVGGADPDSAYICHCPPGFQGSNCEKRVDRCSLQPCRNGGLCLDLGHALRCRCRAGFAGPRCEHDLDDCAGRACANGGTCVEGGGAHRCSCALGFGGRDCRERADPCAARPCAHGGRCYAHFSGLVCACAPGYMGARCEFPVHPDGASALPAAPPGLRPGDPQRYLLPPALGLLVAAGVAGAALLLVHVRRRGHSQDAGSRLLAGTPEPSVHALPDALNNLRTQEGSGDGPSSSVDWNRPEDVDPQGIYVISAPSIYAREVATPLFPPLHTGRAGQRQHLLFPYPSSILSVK
Assay: Affinity determination by Surface Plasmon Resonance (SPR)
Type: binding
Settings: 25° C., biotinylated human DLL3 immobilized on streptavidin sensor chip, 1:1 binding model; read-out: SPR KD
Summary of the method: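 Biotinylated human DLL3 was captured on a streptavidin chip with a reference surface. Compounds at several concentrations were injected at 100 μL/minute in phosphate buffer (137 mM NaCl, 2.7 mM KCl, 0.05% P20, 2% DMSO). Affinity and kinetics came from 1:1 model fits of the sensorgrams.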

| SMILES | Kd [nM] |
| --- | --- |
| CC(=O)N[C@@H](Cc1c[nH]c2ccc(F)cc12)C(=O)N[C@H](C(=O)N[C@H](C(=O)N[C@H]1CSSC[C@@H](C(=O)N[C@@H](Cc2c[nH]c3ncccc23)C(=O)N2C[C@H](F)C[C@H]2C(=O)N[C@H](CCCCNC(=O)CN2CCN(CC(=O)O)CCN(CC(=O)O)CCN(CC(=O)O)CC2)C(N)=O)NC(=O)[C@H](CC(=O)O)NC(=O)[C@H](Cc2cnc[nH]2)NC(=O)[C@H](Cc2ccc(C(F)(F)F)cc2)NC(=O)[C@H](CC(N)=O)NC(=O)[C@H](CC(N)=O)NC1=O)C1CCOCC1)[C@@H](C)O [compound 147, Ac-(5Fluoro-W)-T-(THPG)-C(3)-N-N-(4CF3-F)-H-D-C(3)-(7Aza-W)-(trans4Fluoro-P)-[D-Lys(DOTA)]-NH2] (Ac-[Trp(5-F)]T[Gly(4-THP)]CNN[Phe(4-CF3)]HDC[Trp(7-aza)][Pro(trans-4-F)][dK](DOTA)-NH2; disulfide 4-10) | 1 to 10 |
| CCCC[C@H](NC(=O)[C@@H](NC(=O)[C@H](Cc1c[nH]c2ccc(F)cc12)NC(C)=O)[C@@H](C)O)C(=O)N[C@H]1CSSC[C@@H](C(=O)N[C@@H](Cc2c[nH]c3ncccc23)C(=O)N2C[C@H](F)C[C@H]2C(=O)N[C@H](CCCCNC(=O)CN2CCN(CC(=O)O)CCN(CC(=O)O)CCN(CC(=O)O)CC2)C(N)=O)NC(=O)[C@H](CC(=O)O)NC(=O)[C@H](Cc2c[nH]cn2)NC(=O)[C@H](Cc2ccc(C(F)(F)F)cc2)NC(=O)[C@H](CC(N)=O)NC(=O)[C@H](CC(N)=O)NC1=O [compound 148, Ac-(5Fluoro-W)-T-(Nle)-C(3)-N-N-(4CF3-F)-H-D-C(3)-(7Aza-W)-(trans4Fluoro-P)-[D-Lys(DOTA)]-NH2] (Ac-[Trp(5-F)]T[Nle]CNN[Phe(4-CF3)]HDC[Trp(7-aza)][Pro(trans-4-F)][dK](DOTA)-NH2; disulfide 4-10) | 1 to 10 |
| CC(=O)N[C@@H](Cc1c[nH]c2ccc(F)cc12)C(=O)N[C@H](C(=O)N[C@@H](CC1CCCCC1)C(=O)N[C@H]1CSSC[C@@H](C(=O)N[C@@H](Cc2c[nH]c3ncccc23)C(=O)N2C[C@H](F)C[C@H]2C(=O)N[C@H](CCCCNC(=O)CN2CCN(CC(=O)O)CCN(CC(=O)O)CCN(CC(=O)O)CC2)C(N)=O)NC(=O)[C@H](CC(=O)O)NC(=O)[C@H](Cc2cnc[nH]2)NC(=O)[C@H](Cc2ccc(C(F)(F)F)cc2)NC(=O)[C@H](CC(N)=O)NC(=O)[C@H](CC(N)=O)NC1=O)[C@@H](C)O [compound 149, Ac-(5Fluoro-W)-T-(CHA)-C(3)-N-N-(4CF3-F)-H-D-C(3)-(7Aza-W)-(trans4Fluoro-P)-[D-Lys(DOTA)]-NH2] (Ac-[Trp(5-F)]T[Cha]CNN[Phe(4-CF3)]HDC[Trp(7-aza)][Pro(trans-4-F)][dK](DOTA)-NH2; disulfide 4-10) | 1 to 10 |
| CC(=O)N[C@@H](Cc1c[nH]c2ccc(F)cc12)C(=O)N[C@H](C(=O)N[C@@H](CC1CCC1)C(=O)N[C@H]1CSSC[C@@H](C(=O)N[C@@H](Cc2c[nH]c3ncccc23)C(=O)N2C[C@H](F)C[C@H]2C(=O)N[C@H](CCCCNC(=O)CN2CCN(CC(=O)O)CCN(CC(=O)O)CCN(CC(=O)O)CC2)C(N)=O)NC(=O)[C@H](CC(=O)O)NC(=O)[C@H](Cc2cnc[nH]2)NC(=O)[C@H](Cc2ccc(C(F)(F)F)cc2)NC(=O)[C@H](CC(N)=O)NC(=O)[C@H](CC(N)=O)NC1=O)[C@@H](C)O [compound 150, Ac-(5Fluoro-W)-T-(CBA)-C(3)-N-N-(4CF3-F)-H-D-C(3)-(7Aza-W)-(trans4Fluoro-P)-[D-Lys(DOTA)]-NH2] (Ac-[Trp(5-F)]T[Cba]CNN[Phe(4-CF3)]HDC[Trp(7-aza)][Pro(trans-4-F)][dK](DOTA)-NH2; disulfide 4-10) | 1 to 10 |
| CC(=O)N[C@@H](Cc1c[nH]c2ccc(F)cc12)C(=O)N[C@H](C(=O)N[C@H](C(=O)N[C@H]1CSSC[C@@H](C(=O)N[C@@H](Cc2c[nH]c3ncccc23)C(=O)N2C[C@H](F)C[C@H]2C(=O)N[C@H](CCCCNC(=O)CN2CCN(CC(=O)O)CCN(CC(=O)O)CCN(CC(=O)O)CC2)C(N)=O)NC(=O)[C@H](CC(=O)O)NC(=O)[C@H](Cc2cnc[nH]2)NC(=O)[C@H](Cc2ccc(C(F)(F)F)cc2)NC(=O)[C@H](CC(N)=O)NC(=O)[C@H](CC(N)=O)NC1=O)C1CCCCC1)[C@@H](C)O [compound 151, Ac-(5Fluoro-W)-T-(Chg)-C(3)-N-N-(4CF3-F)-H-D-C(3)-(7Aza-W)-(trans4Fluoro-P)-[D-Lys(DOTA)]-NH2] (Ac-[Trp(5-F)]T[Chg]CNN[Phe(4-CF3)]HDC[Trp(7-aza)][Pro(trans-4-F)][dK](DOTA)-NH2; disulfide 4-10) | 1 to 10 |

Results, then the molecule that gave them:

| Kd [nM] | SMILES |
| --- | --- |
| 1 to 10 | CC(=O)N[C@@H](Cc1c[nH]c2ccc(F)cc12)C(=O)N[C@H](C(=O)N[C@@H](Cc1ccccc1C(F)(F)F)C(=O)N[C@H]1CSSC[C@@H](C(=O)N[C@@H](Cc2c[nH]c3ncccc23)C(=O)N2C[C@H](F)C[C@H]2C(=O)N[C@H](CCCCNC(=O)CN2CCN(CC(=O)O)CCN(CC(=O)O)CCN(CC(=O)O)CC2)C(N)=O)NC(=O)[C@H](CC(=O)O)NC(=O)[C@H](Cc2cnc[nH]2)NC(=O)[C@H](Cc2ccc(C(F)(F)F)cc2)NC(=O)[C@H](CC(N)=O)NC(=O)[C@H](CC(N)=O)NC1=O)[C@@H](C)O [compound 152, Ac-(5Fluoro-W)-T-(2CF3-F)-C(3)-N-N-(4CF3-F)-H-D-C(3)-(7Aza-W)-(trans4Fluoro-P)-[D-Lys(DOTA)]-NH2] (Ac-[Trp(5-F)]T[Phe(2-CF3)]CNN[Phe(4-CF3)]HDC[Trp(7-aza)][Pro(trans-4-F)][dK](DOTA)-NH2; disulfide 4-10) |
| 1 to 10 | CC[C@H](C)[C@H](NC(=O)[C@@H](NC(=O)[C@H](Cc1c[nH]c2ccccc12)NC(C)=O)[C@@H](C)O)C(=O)N[C@H]1CSCSC[C@@H](C(=O)N[C@@H](Cc2c[nH]c3ccccc23)C(=O)N2CCC[C@H]2C(=O)N[C@H](CCCCNC(=O)CN2CCN(CC(=O)O)CCN(CC(=O)O)CCN(CC(=O)O)CC2)C(N)=O)NC(=O)[C@H](CC(=O)O)NC(=O)[C@H](Cc2cnc[nH]2)NC(=O)[C@H](Cc2c[nH]c3ccccc23)NC(=O)[C@H](CC(N)=O)NC(=O)[C@H](CC(N)=O)NC1=O [compound 164, Ac-WTI-C(1)-NNWHD-C(1)-WP-[D-Lys(DOTA)]-NH2] (Ac-WTICNNWHDCWP[dK](DOTA)-NH2; linker 4-10 via CH2) |
| < 1 | CC[C@H](C)[C@H](NC(=O)[C@@H](NC(=O)[C@H](Cc1c[nH]c2ccccc12)NC(C)=O)[C@@H](C)O)C(=O)N[C@H]1CSSC[C@@H](C(=O)N[C@@H](Cc2c[nH]c3ccccc23)C(=O)N2CCC[C@H]2C(=O)NCC(=O)NCC(=O)NCCCOCCOCCOCCCNC(=O)CCC(=O)N[C@H](CCCCNC(=O)CN2CCN(CC(=O)O)CCN(CC(=O)O)CCN(CC(=O)O)CC2)C(N)=O)NC(=O)[C@H](CC(=O)O)NC(=O)[C@H](Cc2cnc[nH]2)NC(=O)[C@H](Cc2ccc3ccccc3c2)NC(=O)[C@H](CC(N)=O)NC(=O)[C@H](CC(N)=O)NC1=O [compound 167, Ac-W-T-I-C(3)-N-N-(2Nal)-H-D-C(3)-W-P-G-G-TTDS-[D-Lys(DOTA)]-NH2] (Ac-WTICNN[2Nal]HDCWPGG-{TtdsdLys(DOTA)NH2}; disulfide 4-10) |
| < 1 | CCC(CC)[C@H](NC(=O)C(NC(=O)[C@H](Cc1c[nH]c2ccccc12)NC(C)=O)[C@@H](C)O)C(=O)N[C@H]1CSSC[C@@H](C(=O)N[C@@H](Cc2c[nH]c3ncccc23)C(=O)N2CCC[C@H]2C(=O)N[C@H](CCCCNC(=O)CN2CCN(CC(=O)O)CCN(CC(=O)O)CCN(CC(=O)O)CC2)C(N)=O)NC(=O)[C@H](CC(=O)O)NC(=O)[C@H](Cc2cnc[nH]2)NC(=O)[C@H](Cc2ccc3ccccc3c2)NC(=O)[C@H](CC(N)=O)NC(=O)[C@H](CC(N)=O)NC1=O (stereo partly drawn) [compound 193, Ac-W-T-(Env)-C(3)-N-N-(2Nal)-H-D-C(3)-(7-Aza-W)-P-[D-Lys(DOTA)]-NH2] (Ac-W[ξThr(3R)][Nva(3-Et)]CNN[2Nal]HDC[Trp(7-aza)]P[dK](DOTA)-NH2; disulfide 4-10) |
| < 1 | CC(=O)N[C@@H](Cc1c[nH]c2ccccc12)C(=O)NC(C(=O)N[C@H](C(=O)N[C@H]1CSSC[C@@H](C(=O)N[C@@H](Cc2c[nH]c3ncccc23)C(=O)N2CCC[C@H]2C(=O)N[C@H](CCCCNC(=O)CN2CCN(CC(=O)O)CCN(CC(=O)O)CCN(CC(=O)O)CC2)C(N)=O)NC(=O)[C@H](CC(=O)O)NC(=O)[C@H](Cc2cnc[nH]2)NC(=O)[C@H](Cc2ccc3ccccc3c2)NC(=O)[C@H](CC(N)=O)NC(=O)[C@H](C)NC1=O)C1CCCCC1)[C@@H](C)O (stereo partly drawn) [compound 194, Ac-W-T-(Chg)-C(3)-A-N-(2Nal)-H-D-C(3)-(7-Aza-W)-P-[D-Lys(DOTA)]-NH2] (Ac-W[ξThr(3R)][Chg]CAN[2Nal]HDC[Trp(7-aza)]P[dK](DOTA)-NH2; disulfide 4-10) |
| < 1 | CC(=O)N[C@@H](Cc1c[nH]c2ccccc12)C(=O)N[C@H](C(=O)N[C@@H](CC1CCCCC1)C(=O)N[C@H]1CSSC[C@@H](C(=O)N[C@@H](Cc2c[nH]c3ncccc23)C(=O)N2CCC[C@H]2C(=O)N[C@H](CCCCNC(=O)CN2CCN(CC(=O)O)CCN(CC(=O)O)CCN(CC(=O)O)CC2)C(N)=O)NC(=O)[C@H](CC(=O)O)NC(=O)[C@H](Cc2cnc[nH]2)NC(=O)[C@H](Cc2ccc3ccccc3c2)NC(=O)[C@H](CC(N)=O)NC(=O)[C@H](C)NC1=O)[C@@H](C)O [compound 195, Ac-W-T-(CHA)-C(3)-A-N-(2Nal)-H-D-C(3)-(7-Aza-W)-P-[D-Lys(DOTA)]-NH2] (Ac-WT[Cha]CAN[2Nal]HDC[Trp(7-aza)]P[dK](DOTA)-NH2; disulfide 4-10) |
